These results are taken from US12024506B2, “Compounds” (Oxford University Innovation Limited, priority 2018, dated 2024).

Bounds are passed on as bounds.

Assay [1] concerns the target T1, GST-human KRas166 (G12V) GPPNHP (Homo sapiens, UniProt P01116, G12V).
T1 construct: made in house; host or cells: E. coli C41(DE3)
Nature of the assay: KRas small-molecule screening by SPR (Biacore T200). It counts as binding. Conditions: compound 100 uM, 5% DMSO buffer; immobilised GST-KRas166 (G12V) GPPNHP. The method, boiled down:
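Biacore T200 screen: compounds at 100 uM final in 5% DMSO buffer (100 mM NaCl, 5 mM MgCl2) over GPPNHP-bound GST-KRas166 G12V captured by anti-GST antibody (10,000–15,000 RU) versus GST-only channel. Expected 1:1 Rmax 63 RU; DMSO solvent correction applied.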

The test system of assay [2] is H358 cells (ATCC CRL-5807). Nature of the assay: Cell viability assay 1 (CellTiter-Glo), H358 cells. Type of assay: cell-based. Conditions: Homo sapiens, NCI-H358, 48 h, first value of the cell, read-out: Cell Viability H358 (concentration that decreases cell viability by 50%). Here is the method: (§1) Cells (A549 ATCC CCL-185) are cultured in Dulbecco's Modified Eagle's Medium plus 10% foetal calf serum and 2 mM L-glutamine at 37° C., 5% CO2. Cells are plated onto white clear bottom 96-well plates (5000 cells/well in 200 μl media) and left to adhere overnight at 37° C., 5% CO2. Next day, test compound (1 μl at 200× concentration in 100% DMSO) is added to give final test compound concentration 1× in 0.5% DMSO. After 48 h of incubation at 37° C., 5% CO2, 20 μl CellTiter-Glo reagent (Promega G7572) is added into each well. Plates are incubated at room temperature with shaking for 30 min and then luminescence is read using a PheraStar plate reader. The concentration of compounds that decrease cell viability by 50% is calculated from dose response curves generated using Dotmatics data analysis software.
In the H358 cell assay, cells (ATCC CRL-5807) are cultured in RPMI-1640 medium plus 10% foetal calf serum and 2 mM L-glutamine at 37° C., 5% CO2.
In general terms: Cellular ATP, detected with luciferase, serves as a proxy for viable cell number.

The subject of assay [3] is DLD1 cells (ATCC CCL-221). Nature of the assay: Cell viability assay 1 (CellTiter-Glo), DLD1 cells. The conditions noted are these: Homo sapiens, DLD-1 cells, 48 h, second value of the cell, read-out: Cell Viability DLD-1 (concentration that decreases cell viability by 50%). It counts as cell-based. Here is the method:
as §1
In the DLD1 cell assay, cells (ATCC CCL-221) are cultured in RPMI-1640 medium plus 10% foetal calf serum and 2 mM L-glutamine at 37° C., 5% CO2.

Consider `COc1nc(-c2cccc3c2OCCO3)ccc1Nc1cccc(CNC(=O)c2ccncc2)c1` [Example 80, N-{3-[6-(2,3-Dihydro-benzo[1,4]dioxin-5-yl)-2-methoxy-pyridin-3-ylamino]-benzyl}-isonicotinamide], for which the “SPR Response Units” value in assay [1] was found to be 51 Response Units. In addition, the IC50 in assay [2] is 16.5 µM; in assay [3], 13.4 µM.

Turning to `COc1nc(-c2cccc3c2OC(CNC(=O)C2CCOCC2)CO3)ccc1Nc1cccc(CN(C)C)c1` (stereo not drawn) [Example 84, Tetrahydro-pyran-4-carboxylic acid {8-[5(3-dimethylamino-methyl-phenylamino)-6-methoxy-pyridin-2-yl]-2,3-dihydro-benzo[1,4]dioxin-2-ylmethyl}-amide], the “SPR Response Units” value in assay [1] is 59 Response Units. Also, the IC50 in assay [2] was 33 µM; in assay [3], 20 µM.

With `COc1cc(NC(=O)N[C@@H]2CC[C@H](NC(=O)OCc3ccccc3)C2)cc(-c2cccc3c2OC(CNC(=O)C2CCOCC2)CO3)n1` (stereo partly drawn) [Example 100, ((1S,3R)-3-{3-[2-Methoxy-6-(3-{[(tetrahydro-pyran-4-carbonyl)-amino]-methyl}-2,3-dihydro-benzo[1,4]dioxin-5-yl)-pyridin-4-yl]-ureido}-cyclopentyl)-carbamic acid benzyl ester], the “SPR Response Units” value in assay [1] came out at 97 Response Units. Moreover, the IC50 turned out to be 28 µM in assay [2] and 5 µM in assay [3].

Take `CN1CCN(Cc2ccc(C(=O)NCC3COc4cccc(-c5cc(OCc6ccccc6)ccn5)c4O3)o2)CC1` (stereo not drawn) [Example 106, 5-(4-Methyl-piperazin-1-ylmethyl)-furan-2-carboxylic acid [8-(4-benzyloxy-pyridin-2-yl)-2,3-dihydro-benzo[1,4]dioxin-2-ylmethyl]-amide]: the “SPR Response Units” value in assay [1] was found to be 114 Response Units. Moreover, the figures for the IC50 in assay [2] and in assay [3] were 27 µM and 11 µM, respectively.

Take `CN1CCN(Cc2ccc(C(=O)NCC3COc4cccc(-c5ccc(OCc6ccccc6)cn5)c4O3)o2)CC1` (stereo not drawn) [Example 109, 5-(4-Methyl-piperazin-1-ylmethyl)-furan-2-carboxylic acid [8-(5-benzyloxy-pyridin-2-yl)-2,3-dihydro-benzo[1,4]dioxin-2-ylmethyl]-amide]: in assay [1], the “SPR Response Units” value was 114 Response Units. In addition, the IC50 in assay [2] is > 100 µM; in assay [3], 9 µM.

Take `COc1nc(-c2cccc3c2O[C@H](CNC(=O)C2CCOCC2)CO3)ccc1Nc1cccc(CN(C)C)c1` [Example 112, Tetrahydro-pyran-4-carboxylic acid {(R)-8-[5-(3-dimethylamino-methyl-phenylamino)-6-methoxy-pyridin-2-yl]-2,3-dihydro-benzo[1,4]dioxin-2-ylmethyl}-amide]: in assay [1], the “SPR Response Units” value came out at 90 Response Units. Besides, the IC50 was 18.8 µM in assay [2] and 16.3 µM in assay [3].

Take `COc1nc(-c2cccc3c2OC(CNC(=O)C2CCOCC2)CO3)ccc1Nc1ccc(CNCc2ccccn2)cc1` (stereo not drawn) [Example 118, Tetrahydro-pyran-4-carboxylic acid {8-[6-methoxy-5-(4-{[(pyridin-2-ylmethyl)-amino]-methyl}-phenylamino)-pyridin-2-yl]-2,3-dihydro-benzo[1,4]dioxin-2-ylmethyl}-amide]: the “SPR Response Units” value in assay [1] is 291 Response Units. In addition, the IC50 in assay [2] was determined as 12.8 µM; in assay [3], 11 µM.

Take `COc1nc(-c2cccc3c2OC(CNC(=O)C2CCOCC2)CO3)ccc1Nc1ccc(CNCc2ccncc2)cc1` (stereo not drawn) [Example 119, Tetrahydro-pyran-4-carboxylic acid {8-[6-methoxy-5-(4-{[(pyridin-4-ylmethyl)-amino]-methyl}-phenylamino)-pyridin-2-yl]-2,3-dihydro-benzo[1,4]dioxin-2-ylmethyl}-amide]: the “SPR Response Units” value in assay [1] turned out to be 349 Response Units. Besides, the IC50 amounted to 10 µM in assay [2] and 11.2 µM in assay [3].

With `COc1nc(-c2cccc3c2OC(CNC(=O)C2CCOCC2)CO3)ccc1Nc1ccc(CNCc2ccn[nH]2)cc1` (stereo not drawn) [Example 120, Tetrahydro-pyran-4-carboxylic acid {8-[6-methoxy-5-(4-{[(2H-pyrazol-3-ylmethyl)-amino]-methyl}-phenylamino)-pyridin-2-yl]-2,3-dihydro-benzo[1,4]dioxin-2-ylmethyl}-amide], the “SPR Response Units” value in assay [1] stood at 230 Response Units. Further, the IC50 in assay [2] came to 12.4 µM; in assay [3], 10.9 µM.

Turning to `COc1nc(-c2cccc3c2OCCO3)ccc1Nc1cccc(CNCc2cn[nH]c2)c1` [Example 126, [6-(2,3-Dihydro-benzo[1,4]dioxin-5-yl)-2-methoxy-pyridin-3-yl]-(3-{[(1H-pyrazol-4-ylmethyl)-amino]-methyl}-phenyl)-amine], in assay [1], the “SPR Response Units” value was determined as 210 Response Units. Also, the figures for the IC50 in assay [2] and in assay [3] were 5.4 µM and 5.3 µM, respectively.

For the molecule `COc1nc(-c2cccc3c2OC(CNC(=O)C2CCOCC2)CO3)ccc1Nc1ccc(CNCC2COCCN2)cc1` (stereo not drawn) [Example 127, Tetrahydro-pyran-4-carboxylic acid{8-[6-methoxy-5-(4-{[(morpholin-3-ylmethyl)-amino]-methyl}-phenylamino)-pyridin-2-yl]-2,3-dihydro-benzo[1,4]dioxin-2-ylmethyl}-amide], the “SPR Response Units” value in assay [1] is on record as 205 Response Units. Moreover, the figures for the IC50 in assay [2] and in assay [3] were 16.9 µM and 18.9 µM, respectively.

With `COc1nc(-c2cccc3c2OCCO3)ccc1Nc1ccc(CNC[C@@H]2COCCN2)cc1` [Example 128, [6-(2,3-Dihydro-benzo[1,4]dioxin-5-yl)-2-methoxy-pyridin-3-yl]-(4-{[((R)-1-morpholin-3-ylmethyl)-amino]-methyl}-phenyl)-amine], the “SPR Response Units” value in assay [1] was 99 Response Units. Besides, the IC50 turned out to be 6.7 µM in assay [2] and 9.5 µM in assay [3].

In the case of `COc1nc(-c2cccc3c2OCCO3)ccc1Nc1ccc(CNC[C@H]2COCCN2)cc1` [Example 129, [6-(2,3-Dihydro-benzo[1,4]dioxin-5-yl)-2-methoxy-pyridin-3-yl]-(4-{[((S)-1-morpholin-3-ylmethyl)-amino]-methyl}-phenyl)-amine], the “SPR Response Units” value in assay [1] was found to be 92 Response Units. Moreover, the values for the IC50 in assay [2] and in assay [3] were 6.5 µM and 10.2 µM, respectively.

In the case of `COc1cc(NC(=O)C2CNCCO2)cc(-c2cccc3c2O[C@H](CNC(=O)c2ccc(CN4CCN(C)CC4)o2)CO3)n1` (stereo partly drawn) [Example 130, Morpholine-2-carboxylic acid{2-methoxy-6-[(R)-3-({[5-(4-methyl-piperazin-1-ylmethyl)-furan-2-carbonyl]-amino}-methyl)-2,3-dihydro-benzo[1,4]dioxin-5-yl]-pyridin-4-yl}-amide], the “SPR Response Units” value in assay [1] was 61 Response Units. For the same molecule, the IC50 worked out at 13.6 µM in assay [2] and 11.9 µM in assay [3].

On to `COc1cc(-c2cccc3c2OCCO3)ccc1Nc1ccc(CNCC2COCCN2)cc1` (stereo not drawn) [Example 132, [4-(2,3-Dihydro-benzo[1,4]dioxin-5-yl)-2-methoxy-phenyl]-(4-{[(morpholin-3-ylmethyl)-amino]-methyl}-phenyl)-amine], for which the “SPR Response Units” value in assay [1] is given as 204 Response Units. Further, the IC50 was determined as 12.7 µM in assay [2] and 11 µM in assay [3].

As to `CN1CCN(Cc2ccc(C(=O)NCC3COc4cccc(-c5cn(Cc6ccccc6)cn5)c4O3)o2)CC1` (stereo not drawn) [Example 138, 5-(4-Methyl-piperazin-1-ylmethyl)-furan-2-carboxylic acid[8-(1-benzyl-1H-imidazol-4-yl)-2,3-dihydro-benzo[1,4]dioxin-2-ylmethy]-amide], the “SPR Response Units” value in assay [1] stood at 238 Response Units. Besides, the IC50 in assay [2] is > 100 µM; in assay [3], 18 µM.

Turning to `COc1nc(-c2cccc3c2OCCO3)ccc1Nc1cccc(CNc2cccnc2)c1` [Example 143], the “SPR Response Units” value in assay [1] turned out to be 67 Response Units. The values for the IC50 in assay [2] and in assay [3] were 17 µM and 6.1 µM, respectively.

As for `c1cc2c(c(-c3ccc(Nc4ccc(CNCC5COCCN5)cc4)cc3)c1)OCCO2` (stereo not drawn) [Example 151, 4-(2,3-dihydrobenzo[b][1,4]dioxin-5-yl)-N-(4-(((morpholin-3-ylmethyl)amino)methyl)phenyl)aniline], the “SPR Response Units” value in assay [1] is recorded as 150 Response Units. Also, the IC50 in assay [2] was 14.7 µM; in assay [3], 1.36 µM.

`CN(C)Cc1cccc(Nc2ccc(-c3cccc4c3OCCO4)[nH]c2=O)c1` [Example 153, 6-(2,3-Dihydro-benzo[1,4]dioxin-5-yl)-3-(3-dimethylaminomethyl-phenylamino)-1H-pyridin-2-one]: in assay [1], the “SPR Response Units” value was determined as 90 Response Units. The IC50 is 0.6 µM in assay [2] and 0.14 µM in assay [3].
